± gives the expanded uncertainty stated by the source.
Settings: for mass density: 101.33 kPa, Liquid, Buoyancy - hydrostatic balance with magnetic suspension - one sinker

Compound: CCCCn1cc[n+](C)c1C.F[P-](F)(F)(F)(F)F [1-butyl-2,3-dimethylimidazolium hexafluorophosphate]
- surface tension liquid-gas (298.17 K, Wilhelmy plate): 44.42 ± 0.13 mN/m
- surface tension liquid-gas (313.07 K, Wilhelmy plate): 43.73 ± 0.13 mN/m
- surface tension liquid-gas (323.27 K, Wilhelmy plate): 43.16 ± 0.13 mN/m
- surface tension liquid-gas (333.13 K, Wilhelmy plate): 42.6 ± 0.13 mN/m
- surface tension liquid-gas (338.38 K, Wilhelmy plate): 42.38 ± 0.13 mN/m
- surface tension liquid-gas (343.51 K, Wilhelmy plate): 42.13 ± 0.13 mN/m
- surface tension liquid-gas (348.43 K, Wilhelmy plate): 41.89 ± 0.13 mN/m
- surface tension liquid-gas (353.08 K, Wilhelmy plate): 41.68 ± 0.13 mN/m
- surface tension liquid-gas (358.76 K, Wilhelmy plate): 41.41 ± 0.13 mN/m
- surface tension liquid-gas (364.84 K, Wilhelmy plate): 41.11 ± 0.13 mN/m

Compound: CCCC[n+]1cccc(C)c1.F[P-](F)(F)(F)(F)F [1-butyl-3-methylpyridinium hexafluorophosphate]
- surface tension liquid-gas (323.02 K, Wilhelmy plate): 43.24 ± 0.13 mN/m
- surface tension liquid-gas (327.6 K, Wilhelmy plate): 42.96 ± 0.13 mN/m
- surface tension liquid-gas (333.18 K, Wilhelmy plate): 42.58 ± 0.13 mN/m
- surface tension liquid-gas (338.24 K, Wilhelmy plate): 42.24 ± 0.13 mN/m
- surface tension liquid-gas (343.75 K, Wilhelmy plate): 41.89 ± 0.13 mN/m
- surface tension liquid-gas (348.09 K, Wilhelmy plate): 41.63 ± 0.13 mN/m
- surface tension liquid-gas (353.61 K, Wilhelmy plate): 41.3 ± 0.13 mN/m
- surface tension liquid-gas (358.09 K, Wilhelmy plate): 40.94 ± 0.13 mN/m
- surface tension liquid-gas (364.84 K, Wilhelmy plate): 40.51 ± 0.13 mN/m

Compound: CCCCCn1cc[n+](C)c1.F[P-](F)(F)(F)(F)F [1-methyl-3-pentylimidazolium hexafluorophosphate]
- surface tension liquid-gas (262.89 K, Ring tensiometer): 43.04 ± 0.6 mN/m
- mass density (267.86 K): 1351.91 ± 1.4 kg/m3
- surface tension liquid-gas (268.06 K, Ring tensiometer): 42.78 ± 0.59 mN/m
- mass density (273.05 K): 1348.4 ± 1.4 kg/m3
- surface tension liquid-gas (273.2 K, Wilhelmy plate): 42.46 ± 0.1 mN/m
- surface tension liquid-gas (277.73 K, Wilhelmy plate): 42.19 ± 0.1 mN/m
- surface tension liquid-gas (277.78 K, Ring tensiometer): 42.23 ± 0.59 mN/m
- surface tension liquid-gas (283.1 K, Ring tensiometer): 41.97 ± 0.59 mN/m
- mass density (283.12 K): 1339.58 ± 1.4 kg/m3
- surface tension liquid-gas (283.17 K, Wilhelmy plate): 41.95 ± 0.1 mN/m
- surface tension liquid-gas (288.28 K, Wilhelmy plate): 41.53 ± 0.1 mN/m
- surface tension liquid-gas (288.29 K, Ring tensiometer): 41.76 ± 0.59 mN/m
- mass density (288.38 K): 1335.51 ± 1.4 kg/m3
- surface tension liquid-gas (292.81 K, Ring tensiometer): 41.54 ± 0.58 mN/m
- surface tension liquid-gas (292.81 K, Wilhelmy plate): 41.49 ± 0.1 mN/m
- mass density (292.83 K): 1332.19 ± 1.4 kg/m3
- mass density (298.17 K): 1328.15 ± 1.4 kg/m3
- surface tension liquid-gas (298.19 K, Wilhelmy plate): 41.24 ± 0.1 mN/m
- surface tension liquid-gas (298.2 K, Ring tensiometer): 41.35 ± 0.58 mN/m
- surface tension liquid-gas (303.11 K, Ring tensiometer): 40.96 ± 0.58 mN/m
- surface tension liquid-gas (303.12 K, Wilhelmy plate): 40.94 ± 0.1 mN/m
- mass density (303.2 K): 1324.24 ± 1.4 kg/m3
- surface tension liquid-gas (308.14 K, Wilhelmy plate): 40.68 ± 0.1 mN/m
- surface tension liquid-gas (308.16 K, Ring tensiometer): 40.75 ± 0.58 mN/m
- mass density (308.22 K): 1318.91 ± 1.4 kg/m3
- surface tension liquid-gas (313.06 K, Ring tensiometer): 40.41 ± 0.57 mN/m
- surface tension liquid-gas (313.06 K, Wilhelmy plate): 40.4 ± 0.1 mN/m
- mass density (313.1 K): 1315.32 ± 1.4 kg/m3
- surface tension liquid-gas (317.95 K, Wilhelmy plate): 40.17 ± 0.1 mN/m
- surface tension liquid-gas (317.98 K, Ring tensiometer): 40.23 ± 0.57 mN/m
- mass density (317.98 K): 1311.51 ± 1.4 kg/m3
- mass density (323.18 K): 1307.37 ± 1.4 kg/m3
- surface tension liquid-gas (323.19 K, Ring tensiometer): 40.04 ± 0.57 mN/m
- surface tension liquid-gas (323.2 K, Wilhelmy plate): 39.86 ± 0.1 mN/m
- surface tension liquid-gas (328.3 K, Wilhelmy plate): 39.63 ± 0.1 mN/m
- surface tension liquid-gas (328.37 K, Ring tensiometer): 39.69 ± 0.57 mN/m
- mass density (328.4 K): 1303.77 ± 1.4 kg/m3
- mass density (333.5 K): 1299.9 ± 1.4 kg/m3
- surface tension liquid-gas (333.51 K, Ring tensiometer): 39.41 ± 0.56 mN/m
- surface tension liquid-gas (333.52 K, Wilhelmy plate): 39.36 ± 0.1 mN/m
- surface tension liquid-gas (338.58 K, Ring tensiometer): 39.09 ± 0.56 mN/m
- surface tension liquid-gas (338.6 K, Wilhelmy plate): 39.1 ± 0.1 mN/m
- mass density (338.86 K): 1295.93 ± 1.4 kg/m3
- mass density (342.93 K): 1292.1 ± 1.4 kg/m3
- surface tension liquid-gas (342.99 K, Ring tensiometer): 38.8 ± 0.56 mN/m
- surface tension liquid-gas (343 K, Wilhelmy plate): 38.86 ± 0.1 mN/m
- mass density (348 K): 1288.64 ± 1.4 kg/m3
- surface tension liquid-gas (348.07 K, Ring tensiometer): 38.64 ± 0.56 mN/m
- surface tension liquid-gas (348.11 K, Wilhelmy plate): 38.64 ± 0.1 mN/m
- mass density (353.25 K): 1284.49 ± 1.4 kg/m3
- surface tension liquid-gas (353.27 K, Ring tensiometer): 38.38 ± 0.55 mN/m
- surface tension liquid-gas (353.3 K, Wilhelmy plate): 38.4 ± 0.1 mN/m
- surface tension liquid-gas (357.97 K, Wilhelmy plate): 38.11 ± 0.1 mN/m
- mass density (358.27 K): 1281.15 ± 1.4 kg/m3
- surface tension liquid-gas (358.34 K, Ring tensiometer): 38.1 ± 0.55 mN/m
- mass density (362.73 K): 1277.18 ± 1.4 kg/m3
- surface tension liquid-gas (362.98 K, Wilhelmy plate): 37.85 ± 0.1 mN/m

Compound: CCCCCCCn1cc[n+](C)c1.F[P-](F)(F)(F)(F)F [1-heptyl-3-methylimidazolium hexafluorophosphate]
- mass density (292.97 K): 1266.43 ± 0.81 kg/m3
- surface tension liquid-gas (293.23 K, Ring tensiometer): 36.05 ± 0.57 mN/m
- surface tension liquid-gas (293.26 K, Wilhemly plate): 36.06 ± 0.14 mN/m
- surface tension liquid-gas (298.15 K, Ring tensiometer): 35.87 ± 0.57 mN/m
- surface tension liquid-gas (298.15 K, Wilhemly plate): 35.89 ± 0.14 mN/m
- mass density (298.16 K): 1262.6 ± 0.81 kg/m3
- surface tension liquid-gas (303.13 K, Ring tensiometer): 35.6 ± 0.56 mN/m
- surface tension liquid-gas (303.15 K, Wilhemly plate): 35.6 ± 0.14 mN/m
- mass density (303.16 K): 1258.82 ± 0.81 kg/m3
- surface tension liquid-gas (308.2 K, Ring tensiometer): 35.31 ± 0.56 mN/m
- surface tension liquid-gas (308.21 K, Wilhemly plate): 35.41 ± 0.14 mN/m
- mass density (308.22 K): 1254.84 ± 0.81 kg/m3
- mass density (313.19 K): 1250.97 ± 0.81 kg/m3
- surface tension liquid-gas (313.22 K, Wilhemly plate): 35.13 ± 0.14 mN/m
- surface tension liquid-gas (313.26 K, Ring tensiometer): 35.14 ± 0.56 mN/m
- surface tension liquid-gas (318.05 K, Wilhemly plate): 34.87 ± 0.14 mN/m
- mass density (318.05 K): 1247.4 ± 0.81 kg/m3
- surface tension liquid-gas (318.08 K, Ring tensiometer): 34.74 ± 0.56 mN/m
- mass density (323.09 K): 1243.43 ± 0.81 kg/m3
- surface tension liquid-gas (323.21 K, Ring tensiometer): 34.65 ± 0.55 mN/m
- surface tension liquid-gas (323.22 K, Wilhemly plate): 34.65 ± 0.14 mN/m
- surface tension liquid-gas (328.1 K, Wilhemly plate): 34.39 ± 0.14 mN/m
- mass density (328.16 K): 1239.71 ± 0.81 kg/m3
- surface tension liquid-gas (328.18 K, Ring tensiometer): 34.3 ± 0.55 mN/m
- mass density (333.36 K): 1235.76 ± 0.81 kg/m3
- surface tension liquid-gas (333.37 K, Ring tensiometer): 34.07 ± 0.55 mN/m
- surface tension liquid-gas (333.37 K, Wilhemly plate): 34.13 ± 0.14 mN/m
- mass density (337.82 K): 1232.14 ± 0.81 kg/m3
- surface tension liquid-gas (337.89 K, Wilhemly plate): 33.91 ± 0.14 mN/m
- surface tension liquid-gas (338.05 K, Ring tensiometer): 33.75 ± 0.55 mN/m
- surface tension liquid-gas (343.31 K, Ring tensiometer): 33.7 ± 0.55 mN/m
- mass density (343.31 K): 1228.66 ± 0.81 kg/m3
- surface tension liquid-gas (343.34 K, Wilhemly plate): 33.68 ± 0.14 mN/m
- mass density (348.05 K): 1224.36 ± 0.81 kg/m3
- surface tension liquid-gas (348.16 K, Wilhemly plate): 33.32 ± 0.14 mN/m
- surface tension liquid-gas (348.26 K, Ring tensiometer): 33.24 ± 0.54 mN/m
- mass density (352.96 K): 1220.98 ± 0.81 kg/m3
- surface tension liquid-gas (353.04 K, Wilhemly plate): 33.18 ± 0.14 mN/m
- mass density (357.92 K): 1217.32 ± 0.81 kg/m3
- surface tension liquid-gas (357.99 K, Ring tensiometer): 33.04 ± 0.54 mN/m
- surface tension liquid-gas (358.04 K, Wilhemly plate): 32.96 ± 0.14 mN/m
- mass density (364.45 K): 1212.58 ± 0.81 kg/m3
- surface tension liquid-gas (364.54 K, Ring tensiometer): 32.62 ± 0.54 mN/m
- surface tension liquid-gas (364.61 K, Wilhemly plate): 32.67 ± 0.14 mN/m

Source: the NIST ThermoML archive (doi:10.1016/j.fluid.2014.10.029)
